Test results from patent US7737161B2, “Condensed furan compounds” (Mitsubishi Tanabe Pharma Corporation, priority 2003, dated 2010).

Molecular target: T1, human FXa (Homo sapiens, UniProt P00742)
T1 construct: purchased Enzyme Research Laboratories, Inc
Test: Inhibitory effect on activated blood coagulation factor X (chromogenic substrate S-2222)
Type: biochemical
Conditions: human FXa 0.05 U/ml, S-2222 0.5 mM, 37° C., pH 8.4
Protocol: A substrate solution was prepared by dissolving chromogenic substrate S-2222 at the concentration of 0.625 mM (final concentration 0.5 mM) in 100 mM Tris buffer (pH 8.4) containing 200 mM sodium chloride and 0.1% bovine serum albumin, and a test compound solution was prepared by dissolving a test compound in a buffer containing 10% dimethyl sulfoxide. The test compound solution (25 μl) was added to the substrate solution (200 μl). In the control group, 25 μl of the buffer containing 10% dimethyl sulfoxide was used instead of the test compound solution.
After pre-warming at 37° C. for 3 minutes, 25 μl of human FXa (Enzyme Research Laboratories, Inc.) dissolved at 0.5 U/ml in a buffer was added to the reaction mixture (final concentration of FXa: 0.05 U/ml) to initiate the reaction. During a 5-minute reaction at 37° C., the absorbance at 405 nm was monitored continuously on a 96 well microplate reader (Spectra MAX250, Molecular Devices) and the increase of absorbance was used as an index of FXa activity. In order to evaluate FXa inhibitory activity of a test compound, the 50% inhibitory concentration of the test compound for FXa activity compared to the control group (IC50 value) was calculated using analytic soft (GraphPad Prism, GraphPad Software, Inc.).

T1 sequence (P00742 235-488 limits assumed): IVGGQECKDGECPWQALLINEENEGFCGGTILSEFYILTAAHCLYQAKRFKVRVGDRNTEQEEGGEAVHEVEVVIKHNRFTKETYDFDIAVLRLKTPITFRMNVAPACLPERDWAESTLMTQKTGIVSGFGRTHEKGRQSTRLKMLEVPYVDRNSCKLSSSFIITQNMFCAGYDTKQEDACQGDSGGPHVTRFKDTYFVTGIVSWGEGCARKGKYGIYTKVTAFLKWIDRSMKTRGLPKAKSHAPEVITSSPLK
T1 sequence (P00742 41-179 partner limits assumed): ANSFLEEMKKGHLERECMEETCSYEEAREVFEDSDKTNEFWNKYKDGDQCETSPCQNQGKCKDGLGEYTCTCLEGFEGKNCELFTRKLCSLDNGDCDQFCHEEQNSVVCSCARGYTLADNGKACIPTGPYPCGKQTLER

IC50: 10.8 nM
Compound: COc1ccc2oc(C(=O)Nc3ccc(Cl)cn3)c(NC(=O)[C@H]3CC[C@H](N(C)C)CC3)c2n1 [Example 36]
